The source of these data is patent US20220144823A1, “PYRAZOLOPYRIDINE DERIVATIVES AS INHIBITORS OF PASK” (Galapagos NV, priority 2019, published 2022).

The target of this experiment is T1, human PASK (Homo sapiens, UniProt Q96RG2).
T1 construct: purchased ThermoFisher Scientific PR7013A
As to the kind of experiment: 33P radioactive kinase assay. The following applies: 33P radioactive PASK kinase assay, 10 μM ATP, ZIPtide 1 μM. It counts as biochemical. Put shortly:
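Human PASK phosphorylation of ZIPtide peptide was measured by incorporation from [^33P]-ATP plus unlabelled ATP, with a 10-point, 1/5 dilution series from 0.2 or 2 mM DMSO stocks and 1% DMSO final. Reactions were stopped with phosphoric acid, filter-harvested, washed and scintillation-counted. Percentage inhibition gave dose–response curves and averaged IC50s.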

T1 sequence (Q96RG2 whole entry): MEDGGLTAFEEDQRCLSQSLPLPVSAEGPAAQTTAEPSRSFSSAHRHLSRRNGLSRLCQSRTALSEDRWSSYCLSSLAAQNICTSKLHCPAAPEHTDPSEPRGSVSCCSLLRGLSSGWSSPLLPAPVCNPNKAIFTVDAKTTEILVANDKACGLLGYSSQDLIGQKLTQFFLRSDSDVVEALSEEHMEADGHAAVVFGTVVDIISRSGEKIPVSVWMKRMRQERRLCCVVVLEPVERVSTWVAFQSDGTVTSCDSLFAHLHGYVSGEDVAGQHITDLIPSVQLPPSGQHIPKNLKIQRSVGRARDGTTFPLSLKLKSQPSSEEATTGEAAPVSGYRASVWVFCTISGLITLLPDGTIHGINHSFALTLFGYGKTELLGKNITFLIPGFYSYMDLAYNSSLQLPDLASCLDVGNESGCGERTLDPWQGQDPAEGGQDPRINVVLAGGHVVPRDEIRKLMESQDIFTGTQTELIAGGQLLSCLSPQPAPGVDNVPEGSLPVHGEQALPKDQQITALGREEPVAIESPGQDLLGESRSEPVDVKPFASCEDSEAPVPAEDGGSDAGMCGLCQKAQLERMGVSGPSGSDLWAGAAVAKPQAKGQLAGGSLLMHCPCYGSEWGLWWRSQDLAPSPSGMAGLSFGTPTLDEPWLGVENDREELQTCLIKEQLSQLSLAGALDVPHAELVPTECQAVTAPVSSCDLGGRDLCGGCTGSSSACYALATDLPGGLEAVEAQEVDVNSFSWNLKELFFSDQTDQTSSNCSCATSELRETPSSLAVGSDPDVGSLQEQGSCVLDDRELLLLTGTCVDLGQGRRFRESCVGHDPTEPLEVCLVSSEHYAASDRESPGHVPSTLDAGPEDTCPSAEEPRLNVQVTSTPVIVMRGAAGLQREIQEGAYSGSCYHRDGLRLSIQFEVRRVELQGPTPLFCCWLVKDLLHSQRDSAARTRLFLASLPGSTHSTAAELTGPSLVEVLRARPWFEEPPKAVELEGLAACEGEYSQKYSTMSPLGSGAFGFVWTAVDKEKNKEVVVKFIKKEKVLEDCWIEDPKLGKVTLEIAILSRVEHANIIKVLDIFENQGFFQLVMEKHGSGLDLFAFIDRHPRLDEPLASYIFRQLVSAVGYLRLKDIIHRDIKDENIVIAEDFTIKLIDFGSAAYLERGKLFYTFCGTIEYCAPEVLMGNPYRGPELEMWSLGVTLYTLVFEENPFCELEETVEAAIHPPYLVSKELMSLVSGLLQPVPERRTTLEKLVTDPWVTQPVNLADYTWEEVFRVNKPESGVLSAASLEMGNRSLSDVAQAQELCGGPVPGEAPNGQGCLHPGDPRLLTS

Broadly, the IC50 is the point on the concentration scale where inhibition reaches its midpoint. As to `Cc1nn(C(C)C)c(C)c1-c1cnn2ccc(-c3cc(C(=O)O)co3)cc12` [Cpd 18, 5-[3-(1-isopropyl-3,5-dimethyl-pyrazol-4-yl)pyrazolo[1,5-a]pyridin-5-yl]furan-3-carboxylic acid], the IC50 lay within 0.01 to 10 nM.
